Data: patent publication US8278316B2, “Aza pyridone analogs useful as melanin concentrating hormone receptor-1 antagonists” (Bristol-Myers Squibb Company, priority 2009, dated 2012)

target: T1, human melanin concentrating hormone receptor (MCHR1) (Homo sapiens, UniProt Q99705, A5T/E4Q); experiment: Radioligand binding assay for assessment of MCHR1 activity; conditions: membranes from HEK-293 cells expressing mutated (E4Q, AST) hMCHR1; competition with 0.06-0.1 nM [Phe13,[125I]Tyr19]-MCH, 90 min
T1 construct: expressed in transfected cells; host or cells: HEK-293 (stably transfected), membranes
Procedure: Compounds of Formula I were initially characterized in an in vitro binding assay to determine their Ki or ability to antagonize binding of a peptide agonist to the human melanin concentrating hormone receptor (MCHR1).
Membranes from stably transfected HEK-293 cells expressing a mutated (E4Q, AST) hMCHR1 receptor were prepared by dounce homogenization and differential centrifugation. Binding experiments were carried out with 0.5-1.0 ug of membrane protein incubated in a total of 0.2 ml in 25 mM HEPES (pH 7.4) with 10 mM MgCl2, 2 mM EGTA, and 0.1% BSA (Binding Buffer) for 90 min. For competition binding assays, reactions were carried out in the presence of with 0.06-0.1 nM [Phe^13, [^125I]Tyr^19]-MCH and increasing concentrations of unlabeled test molecules. Reactions were terminated by rapid vacuum filtration over 96 well-GFC Unifilter plates pre-coated with 0.075 ml binding buffer containing 1% BSA, and washed 3 times with 0.4 ml of Phospho-buffered Saline (pH 7.4) containing 0.01% TX-100. Filters were dried; 0.05 ml microscint 20 was added to each well and radioactivity was subsequently quantified by scintillation counting on a TOPCOUNT® microplate scintillation counter (Packard). Inhibitory constants were determined by nonlinear least squares analysis using a four parameter logistic equation.

T1 sequence (Q99705 whole entry E4Q/A5T): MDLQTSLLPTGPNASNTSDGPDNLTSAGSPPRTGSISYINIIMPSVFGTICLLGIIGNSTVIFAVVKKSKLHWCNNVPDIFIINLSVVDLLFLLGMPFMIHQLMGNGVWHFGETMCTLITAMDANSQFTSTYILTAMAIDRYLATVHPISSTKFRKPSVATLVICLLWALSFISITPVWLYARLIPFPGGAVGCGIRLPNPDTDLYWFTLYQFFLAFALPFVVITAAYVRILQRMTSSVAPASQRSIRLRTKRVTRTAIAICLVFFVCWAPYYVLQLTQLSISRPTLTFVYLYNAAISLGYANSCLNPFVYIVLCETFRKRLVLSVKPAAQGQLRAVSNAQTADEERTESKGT

First: COc1cc(-n2ccc(C#Cc3ccccc3)nc2=O)ccc1OCC(C)(C)O [Example B1, 1-(4-(2-Hydroxy-2-methylpropoxy)-3-methoxyphenyl)-4-(phenylethynyl)pyrimidin-2(1H)-one]
Second: COc1cc(-n2ccc(COc3ccccc3F)nc2=O)ccc1OCC(C)(C)O [Example C5]
The Ki of the first is 56-fold lower: 39 nM for the first, 2200 nM for the second. The first binds more tightly here.

Compared with `COc1cc(-n2cnc(SCc3ccc(Cl)cc3)cc2=O)ccc1OCC(O)C1CC1` (stereo not drawn) [Example H6], `COc1cc(-n2cnc(SCc3ccc(Cl)cc3)cc2=O)ccc1OCC(C)(C)O` [Example H2] is 1.6-fold lower in Ki: 11 nM for the first, 7 nM for the second.

First: COc1cc(-n2ncc(CSc3ccc(Cl)cc3)cc2=O)ccc1OCC(C)(C)O [Example E1, 5-((4-Chlorophenylthio)methyl)-2-(4-(2-hydroxy-2-methylpropoxy)-3-methoxyphenyl)pyridazin-3(2H)-one]
Second: COc1cc(-n2ccc(SCc3ccc(Cl)cc3)nc2=O)ccc1OCC(C)(C)O [Example A1, 4-(4-Chlorobenzylthio)-1-(4-(2-hydroxy-2-methylpropoxy)-3-methoxyphenyl)pyrimidin-2(1H)-one]
The Ki of the first is 26-fold higher: 1060 nM for the first, 41 nM for the second. The second binds more tightly here.

First: COc1cc(-n2cnc(CSc3ccc(F)cc3)cc2=O)ccc1OCC(C)(C)O [Example G3]
Second: COc1cc(-n2cnc(OCc3ccc(Cl)cc3)cc2=O)ccc1OCC(C)(C)O [Example H1, 6-(4-Chlorobenzyloxy)-3-(4-(2-hydroxy-2-methylpropoxy)-3-methoxyphenyl)pyrimidin-4(3H)-one]
The Ki of the first is 11-fold higher: 378 nM for the first, 35 nM for the second. The second binds more tightly here.

First: COc1cc(-n2ccc(OCc3ccc(Cl)c(Cl)c3)nc2=O)ccc1OCC(C)(C)O [Example A13]
Second: Cc1cc(-n2ccc(NCc3ccc(Cl)cc3)nc2=O)ccc1OCC(C)(C)O [Example A17]
The Ki of the first is 2.5-fold higher: 1150 nM for the first, 458 nM for the second. The second binds more tightly here.

Going from `COc1cc(-n2ncc(C#Cc3ccccc3)cc2=O)ccc1OCC(O)C1CC1` (stereo not drawn) [Example D2] to `COc1cc(-n2cnc(/C=C/c3ccc(Cl)cc3)cc2=O)ccc1OCC(C)(C)O` [Example J1, (E)-6-(4-Chlorostyryl)-3-(4-(2-hydroxy-2-methylpropoxy)-3-methoxyphenyl)pyrimidin-4(3H)-one], the Ki falls from 37 nM to 23 nM (1.6-fold). The second binds more tightly here.
